Reference: patent publication US11753363B2, “13-oxidized ingenol derivative and use thereof” (Tianjin Pharmaceutical Da Ren Tang Group Corp., Ltd. …, priority 2017, dated 2023)
≈ marks a conversion by molar mass, not a printed value.

Legend:
Format in all cases: cell-based
[1] = test system: K562 (human leukemia cells); assay: Inhibition of proliferation of tumor cell lines (MTT), K562; settings: Homo sapiens, K562, 72 h, read-out: IC50 value of compound for inhibition of proliferation of tumor cell lines, K562
Description: (§1) In this example, the inhibitory activity of compounds of the present invention against proliferation of seven human tumor cell lines and mouse B16-F10 melanoma cells was tested in vitro, and the IC50 value (50% inhibitory concentration) of compounds against each tumor cell line was calculated.
(§2) The seven human tumor cell lines are: MCF-7 (human breast cancer cells), LOVO (human colon cancer cells), A549 (human lung cancer cells), BGC-823 (human gastric cancer cells), SMMC-7721 (human liver cancer cells), K562 (human leukemia cells), and HeLa (human cervical cancer cells).
(§3) IC50 values of the compounds for A549, BGC-823, LOVO, MCF-7, SMMC-7721, HeLa, and B16-F10 cells were tested. The above cells were routinely cultured in 1640 nutrient solution containing 10% calf serum, with passage for 1 time every 2 days, and the cells in logarithmic growth phase were taken for experiments. After the A549, BGC-823, LOVO, MCF-7, SMMC-7721, HeLa and B16-F10 cells in logarithmic growth phase were subjected to 0.25% trypsin digestion, they were blown into a single cell suspension, and then the cell concentration was adjusted to about 1×10^5·mL^−1 using RPMI 1640 solution containing 10% calf serum. The cells were seeded in a 96-well culture plate at 100 μL per well, and cultured for 24 hours until the cells were attached. K562 cells were taken and centrifuged and diluted into 2×10^5·mL^−1 single cell suspension with RPMI 1640 solution containing 10% calf serum, and inoculated into a 96-well culture plate at 100 μL per well.
(§4) 100 μL of sample solution with different concentrations to be tested were added to the above 96-well plate, each concentration was added to 4 wells in parallel, and the cell control group was added with an equal volume of RPMI 1640 medium containing 10% calf serum to make a reaction volume of 200 μL. After incubating in an incubator at 37° C., 5% CO2 for 72 h, 10 μL of 5 mg·mL^−1 MTT solution was added to each well, and incubated at 37° C. for 4 h. The supernatant was carefully aspirated, 180 μL of DMSO was added to each well followed by shaking, and the absorbance (OD) value was measured at 570 nm on the microplate reader. The inhibition rate was calculated, and regression equation was established with the logarithmic value of the sample concentration and the inhibition rate (IR) to find the IC50 value of the compound against the cells to be tested. IR (%)=(1−OD value of the experimental group/OD value of the cell control group)×100%

[2] = test system: HeLa (human cervical cancer cells); assay: Inhibition of proliferation of tumor cell lines (MTT), HeLa; settings: Homo sapiens, 72 h, read-out: IC50 value of compound for inhibition of proliferation of tumor cell lines, HeLA
Description: as §1, §2, §3, §4

[3] = test system: A549 (human lung cancer cells); assay: Inhibition of proliferation of tumor cell lines (MTT), A549; settings: Homo sapiens, A549, 72 h, read-out: IC50 value of compound for inhibition of proliferation of tumor cell lines, A549
Description: as §1, §2, §3, §4

[4] = test system: MCF-7 (human breast cancer cells); assay: Inhibition of proliferation of tumor cell lines (MTT), MCF-7; settings: Homo sapiens, MCF7, MCF-7, 72 h, read-out: IC50 value of compound for inhibition of proliferation of tumor cell lines, MCF-7
Description: as §1, §2, §3, §4

[5] = test system: LOVO (human colon cancer cells); assay: Inhibition of proliferation of tumor cell lines (MTT), LOVO; settings: Homo sapiens, 72 h, read-out: IC50 value of compound for inhibition of proliferation of tumor cell lines, LOVO
Description: as §1, §2, §3, §4

[6] = test system: BGC-823 (human gastric cancer cells); assay: Inhibition of proliferation of tumor cell lines (MTT), BGC-823; settings: Homo sapiens, BGC-823, 72 h, read-out: IC50 value of compound for inhibition of proliferation of tumor cell lines, BGC-823
Description: as §1, §2, §3, §4

[7] = test system: neutrophilic granulocytes; assay: Neutrophil oxidative burst (luminol chemiluminescence); settings: Neutrophil; 3 μg/mL; rat neutrophils; (Csample−Ccontrol)/Ccontrol×100%; read-out: Efficiency of compounds in stimulating neutrophil oxidative burst
Description: This example investigated the effect of compound on neutrophil oxidative burst and calculated the efficiency of each compound in stimulating neutrophil oxidative burst.
Blood was taken from the abdominal aorta of rat. The neutrophilic granulocytes were isolated by the operational procedure of the rat peripheral blood neutrophil isolation kit. The neutrophilic granulocytes were re-suspended by Hanks, and were plated in a 96-well white plate at 1×10^5 cells/well, 80 μL/well; 1 mM of Luminol was added at 10 μL/well; 10 μL of the sample was added to each well, and the degree of oxidative burst was evaluated by chemiluminescence. Calculation formula of Efficiency: Efficiency (%)=(Csample−Ccontrol)/Ccontrol×100%

[8] = test system: SMMC-7721 (human liver cancer cells); assay: Inhibition of proliferation of tumor cell lines (MTT), SMMC-7721; settings: Homo sapiens, SMMC-7721, 72 h, read-out: IC50 value of compound for inhibition of proliferation of tumor cell lines, SMMC-7721
Description: as §1, §2, §3, §4

[9] = test system: mouse B16-F10 melanoma cells; assay: Inhibition of proliferation of tumor cell lines (MTT), B16-F10; settings: Mus musculus, B16-F10, 72 h, read-out: IC50 value of compound for inhibition of proliferation of tumor cell lines, B16-F10
Description: as §1, §3, §4

[10] = test system: release of IL-8 by human keratinocytes (HaCaT); assay: Release of IL-8 by human keratinocytes (HaCaT), IL-8 Elisa; settings: Homo sapiens, HaCaT; 0.1 μg/mL; 24 h; (Csample−Ccontrol)/Ccontrol×100%; read-out: Efficiency of compound in stimulating the release of IL-8 by HaCaT cells
Description: This Example investigated the effect of compound on release of IL-8 by human keratinocytes (HaCaT) and calculated the efficiency of each compound in stimulating the release of IL-8 by human keratinocytes (HaCaT).
Hacat cells were cultured in MEM+10% FBS under the conditions of 37° C., 5% CO2, and when the cells reached 80-95% fusion, they were inoculated into a 96-well culture plate (1×10^4 cells/well) at 100 μL/well, and incubated for 18-24 h. The supernatant was discarded and the cells were incubated for 3-6 h in 1% FBS medium. Different concentrations of the sample solution of compound to be tested were added to each well, and the cell control group was added with an equal volume of 1% FBS medium at 10 μL/well, and incubated for 24 h. The supernatant was taken and tested according to the operation sequence of the IL-8 Elisa kit. Calculation formula of Efficiency: Efficiency (%)=(Csample−Ccontrol)/Ccontrol×100%

## CCCCCCCCCCCC(=O)O[C@@]12C[C@@H](C)[C@]34C=C(C)[C@H](OC(=O)CCC)[C@@]3(O)[C@H](O)C(CO)=C[C@H](C4=O)[C@@H]1C2(C)C [Compound 11, 3-O-n-butanoyl-13-O-dodecanoyl-ingenol]
[1]
  IC50: 0.1 µg/mL (≈ 0.162 µM)
[2]
  IC50: 20.3 µg/mL (≈ 32.9 µM)
[3]
  IC50: 14.3 µg/mL (≈ 23.2 µM)
[4]
  IC50: 18.5 µg/mL (≈ 30 µM)
[5]
  IC50: 8.82 µg/mL (≈ 14.3 µM)
[6]
  IC50: 13.4 µg/mL (≈ 21.7 µM)
[7]
  activation at 3 µg/mL: 33.5%
[8]
  IC50: 19.1 µg/mL (≈ 31 µM)
[9]
  IC50: 26.2 µg/mL (≈ 42.5 µM)

## CCCCCCCCCCCC(=O)O[C@@]12C[C@@H](C)[C@]34C=C(C)[C@H](O)[C@@]3(O)[C@H](O)C(COC(=O)CCC)=C[C@H](C4=O)[C@@H]1C2(C)C [Compound 13, 20-O-n-butanoyl-13-O-dodecanoyl-ingenol]
[1]
  IC50: 0.07 µg/mL (≈ 0.113 µM)
[10]
  activation at 0.1 µg/mL: 30.3%
[2]
  IC50: 24.2 µg/mL (≈ 39.2 µM)
[3]
  IC50: 17.2 µg/mL (≈ 27.9 µM)
[4]
  IC50: 18 µg/mL (≈ 29.2 µM)
[5]
  IC50: 6.93 µg/mL (≈ 11.2 µM)
[6]
  IC50: 12.4 µg/mL (≈ 20.1 µM)
[7]
  activation at 3 µg/mL: 62.4%
[8]
  IC50: 12.5 µg/mL (≈ 20.3 µM)
[9]
  IC50: 30.5 µg/mL (≈ 49.4 µM)

## C/C=C(/C)C(=O)OCC1=C[C@@H]2C(=O)[C@]3(C=C(C)[C@H](O)[C@@]3(O)[C@@H]1O)[C@H](C)C[C@]1(OC(=O)CCCCCCCCCCC)[C@H]2C1(C)C [Compound 15b, 20-O-angeloyl-13-O-dodecanoyl-ingenol]
[1]
  IC50: 0.001 µg/mL (≈ 0.00159 µM)
[2]
  IC50: 10.2 µg/mL (≈ 16.2 µM)
[3]
  IC50: 10 µg/mL (≈ 15.9 µM)
[4]
  IC50: 23.3 µg/mL (≈ 37.1 µM)
[5]
  IC50: 15.2 µg/mL (≈ 24.2 µM)
[6]
  IC50: 20.6 µg/mL (≈ 32.8 µM)
[7]
  activation at 3 µg/mL: 360%
[8]
  IC50: 13.1 µg/mL (≈ 20.8 µM)
[9]
  IC50: 9.09 µg/mL (≈ 14.5 µM)

## C/C=C(\C)C(=O)O[C@H]1C(C)=C[C@]23C(=O)[C@@H](C=C(CO)[C@@H](O)[C@]12O)[C@@H]1C(C)(C)[C@]1(OC(=O)CCCCCCCCCCC)C[C@H]3C [Compound 20, 3-O-tigloyl-13-O-dodecanoyl-ingenol]
[1]
  IC50: 0.81 µg/mL (≈ 1.29 µM)
[10]
  activation at 0.1 µg/mL: 109%
[2]
  IC50: 7.45 µg/mL (≈ 11.8 µM)
[3]
  IC50: 13.1 µg/mL (≈ 20.8 µM)
[4]
  IC50: 6.8 µg/mL (≈ 10.8 µM)
[5]
  IC50: 9.91 µg/mL (≈ 15.8 µM)
[6]
  IC50: 11 µg/mL (≈ 17.5 µM)
[7]
  activation at 3 µg/mL: 43.8%
[8]
  IC50: 18.4 µg/mL (≈ 29.3 µM)
[9]
  IC50: 3.33 µg/mL (≈ 5.3 µM)
